The results in this text go back to US20120252721A1 (priority 2011, published 2012).

Assay [1] concerns HCV genotype 3a NS5A within the 1b-replicon. Put plainly: Luciferase replicon assay, NS5A-intergenotypic stable cell line genotype 3a. Format: cell-based. To be noted: Hepatitis C virus, read-out: EC50 3a. The gist of the method:
(§1)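 Stable cured-Huh7 lines carry a 1b luciferase replicon with genotype 3a or 4a NS5A, selected with G418. Cells were treated with ten 5-fold compound dilutions for 72 h at 37 °C. Replication was read as luciferase signal, and EC50 was fitted from dose-response curves.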

The subject of assay [2] is HCV genotype 4a NS5A within the 1b-replicon. Put plainly: Luciferase replicon assay, NS5A-intergenotypic stable cell line genotype 4a. Format: cell-based. The note with it: Hepatitis C virus, read-out: EC50 4a. The gist of the method:
as §1

Assay [3] has as its system HCV genotype 1b replicon, NS5B M414T. Briefly: Luciferase replicon transient transfection assay, genotype 1b NS5B M414T. Format: cell-based, hepatitis C virus. The procedure:
(§2) The luciferase replicon transient transfection assay measures the ability of a test compound to inhibit the replication of a transiently-transfected HCV luciferase-bearing wild-type or mutant replicon in cured human hepatoma cells (Huh7.5). The inhibition of HCV replication was measured by quantification of luciferase protein expression. This assay has been validated using a panel of genotype 1a and 1b replicons bearing mutations known to be associated with resistance to BMS-790052. Briefly, subconfluent Huh7.5 cells were electroporated with 10 μg of wild-type or mutant luciferase-bearing HCV replicon RNA. The cells were then seeded in 96-well opaque white plates at 3×10^4 cells/well in 150 μL/well and incubated for 4 hrs at 37° C./5% CO2. […] The plates were agitated on a rotating platform at room temperature for 3 min and read in a Victor^3V microplate reader (Perkin-Elmer) using a 700 nm cut-off filter with a 1 sec read time. EC50 values were calculated from dose response curves from the resulting best-fit equations determined by Microsoft Excel and XLfit 4.1 software.
(§3) To determine the replication capacity of each mutant relative to the wild-type parental replicon, transfected cells were plated on two plates and were not treated with compound. Luciferase activity was measured at time points of 4 hrs and 4 days after plating for each replicon. […]

Assay [4] deals with HCV genotype 1b replicon, NS5B M423T. Put plainly: Luciferase replicon transient transfection assay, genotype 1b NS5B M423T. Format: cell-based, hepatitis C virus. The procedure:
as §2, §3

The subject of assay [5] is HCV genotype 1b replicon, NS5B C316Y. Put plainly: Luciferase replicon transient transfection assay, genotype 1b NS5B C316Y. The format is cell-based, hepatitis C virus. How it is done:
as §2, §3

The test system of assay [6] is HCV genotype 1b replicon, NS5B S282T. Put plainly: Luciferase replicon transient transfection assay, genotype 1b NS5B S282T. Format: cell-based, hepatitis C virus. The procedure:
as §2, §3

Bounds are passed on as bounds.

Regarding `COC(=O)N[C@H](C(=O)N1CCC[C@H]1c1ncc(-c2ccc(-c3csc4c(-c5cnc([C@@H]6CCCN6C(=O)[C@@H](NC(=O)OC)C(C)C)[nH]5)csc34)cc2)[nH]1)C(C)C` [Compound A15, [(S)-1-((S)-2-{4-[4-(6-{2-[(S)-1-((S)-2-methoxycarbonylamino-3-methyl-butyryl)-pyrrolidin-2-yl]-3H-imidazol-4-yl}-thieno[3,2-b]thiophen-3-yl)-phenyl]-1H-imidazol-2-yl}-pyrrolidine-1-carbonyl)-2-methyl-propyl]-carbamic acid methyl ester], the figures for the EC50 in assay [1] and in assay [2] were 100 to 1000 pM and less than 100 pM, respectively.
For the molecule `COC(=O)N[C@H](C(=O)N1CCC[C@H]1c1nc2cc(-c3csc4c(-c5ccc(-c6cnc([C@@H]7CCCN7C(=O)[C@H](NC(=O)OC)c7ccccc7)[nH]6)cc5)csc34)ccc2[nH]1)C(C)C` [Compound A169, [(S)-1-((S)-2-{6-[6-(4-{(S)-2-[1-((R)-2-methoxycarbonylamino-2-phenyl-acetyl)-pyrrolidin-2-yl]-3H-imidazol-4-yl}-phenyl)-thieno[3,2-b]thiophen-3-yl]-1H-benzoimidazol-2-yl}-pyrrolidine-1-carbonyl)-2-methyl-propyl]-carbamic acid methyl ester], the 50% effective concentration (EC50) was 1.8 pM in assay [3] (Hepatitis C virus, genotype 1b, NS5B mutation M414T (confers resistance to Benzothiadiazine)); 2 pM in assay [4] (Hepatitis C virus, genotype 1b, NS5B mutation M423T (confers resistance to Thiophene)); 2.3 pM in assay [5] (Hepatitis C virus, genotype 1b, NS5B mutation C316Y (confers resistance to Benzofuran/Benzothiadiazine)); 1.4 pM in assay [6] (Hepatitis C virus, genotype 1b, NS5B mutation S282T (confers resistance to 2′-C-Methylnucleoside)). Also, the Ratio in assay [3] ({}) is 1.05; in assay [4] ({}), 1.22; in assay [5] ({}), 1.37; in assay [6] ({}), 0.83.
